Results on 14 compounds are retold here after US20240400591A1 (Jacobio Pharmaceuticals Co., Ltd., priority 2021, published 2024).

Broadly, the EC50 is the concentration that produces a half-maximal response. Usually IC50 stands for the concentration that gives 50% inhibition.

The target in assay [1] is T1, His-p53 Y220C (94-294) protein (Homo sapiens, UniProt P04637, Y220C).
T1 construct: His-p53 Y220C (94-294) protein
The assay can be described thus: In vitro DNA binding assay (HTRF). Particulars: % activation normalized to 2 μM Ref-1a high control. Type of assay: biochemical. (Time-resolved FRET reads energy transfer from a long-lived donor to a nearby acceptor.)

The test system of another assay is NUGC3 (P53 Y220C). The assay can be described thus: Cell viability assay (CellTiter-Glo, 6 days), NUGC3. In kind it is cell-based. Particulars: Homo sapiens, NUGC-3, 144 h. As to the method: (§1) Cells were collected and counted. A desired number of cells was seeded into 96-well microplate and cultured in 37° C. cell incubator overnight. Compounds dissolved in cell culture medium were added into cell plate and cultured for 6 days. After balancing CellTiter-Glo reagent and cells at room temperature for 30 min, equal volume of CellTiter-Glo reagents was added to assay plate and shaken for 2 min for cell lysis. The cells were balanced at room temperature for 10 minutes and Luminescence signal was read using Envision. The percent of cell viability for compounds treated wells were normalized between High control and low control. Wells containing cell culture medium and same percentage DMSO sewved as Low control. Wells containing cells and same percentage DMSO sewved as High control. Cell viability (%)=(Luminescence readoutCompound treated−Luminescence readoutLow control)/(Luminescence readoutHigh control−Luminescence readoutLow control)*100%. Then the data were analyzed either by fitting a 4-parameter logistic model or by Excel to calculate IC50 values. And the IC50 was the concentration at 50% Cell viability on the curve.

Another assay concerns NUGC4 (P53 WT). Nature of the assay: Cell viability assay (CellTiter-Glo, 6 days), NUGC4. Type of assay: cell-based. Particulars: Homo sapiens, NUGC-4, 144 h. As to the method: as §1
(In general: ATP-based viability assays read luminescence as a measure of living cells.)

Assay [2] concerns NUGC-3_P53_Luc single clonal cell line (p53 Y220C). The assay can be described thus: Reporter gene assay (p53 RE luciferase). Type of assay: cell-based. As to conditions: Homo sapiens. As to the method: NUGC-3_P53_Luc single clonal cell line was established using pGL4.38[luc2P/p53 RE/Hygro] Vector (E365A, promega). NUGC-3_P53-Luc single clonal cells were cultured in 37° C. cell incubator before use. NUGC-3-P53-Luc cells were collected and washed twice with PBS to remove phenol red and then resuspended in medium to a proper concentration. Tested compound dilutions were transferred into 384 well assay plates (PerkinElmer). A desired number of cells was seeded into the assay plate and cultured for 6 hours at 37° C. cell incubator. Britelite plus Luciferase Assay Reagent were added into each well and the luminescence value was recorded on Envision. The percent of activity value of compounds treated wells was normalized between high control and low control. Wells containing cells and Ref-1a (10 μM) sewved as high control, and wells containing cells and same percentage of DMSO sewved as low control. Activity value (%)=(Luminescence readoutCompound treated−Luminescence readoutLow control)/(Luminescence readoutHigh control−Luminescence readoutLow control)*100%. Then the data were analyzed either by fitting a 4-parameter logistic model or by Excel to calculate EC50 values and the EC50 was the concentration at 50% Activity on the curve.
In general terms: A reporter such as luciferase makes a cellular process visible.

Setting [3] is: cell viability, 6 days, CellTiter-Glo, read-out: NUGC3 (P53 Y220C) IC50.
The mark [4] stands for this setting: cell viability, 6 days, CellTiter-Glo, read-out: NUGC4 (P53 WT) IC50.
Setting [5] is: NUGC-3, 6 h, luciferase reporter, 6 hours, normalized to Ref-1a (10 μM) high control, read-out: p53(Y220C)_NUGC-3 EC50.
Setting [6] is: NUGC-3, luciferase reporter, 6 hours, normalized to Ref-1a (10 μM) high control, read-out: p53(Y220C)_NUGC-3 EC50.

SMILES strings stand for the structures. Where two headings read alike, the source gives them in different places.

Regarding `CN1CC[C@@H](Nc2cccc3c(CC(F)(F)F)c(C#CCNc4ccc(P(C)(C)=O)cc4Cl)sc23)[C@@H](F)C1` (racemic) [Example 83, (3-chloro-4-((3-(7-(((Z)-3-fluoro-1-methylpiperidin-4-yl)amino)-3-(2,2,2-trifluoroethyl)benzo[b]thiophen-2-yl)prop-2-yn-1-yl)amino)phenyl)dimethylphosphine oxide], the EC50 in assay [1] came out at 40 nM; in assay [2] (setting [5]), 0.21 µM. Further, the IC50 turned out to be 1.31 µM with NUGC3 (P53 Y220C) (setting [3]) and 7.96 µM with NUGC4 (P53 WT) (setting [4]).
For `COc1cc(P(C)(C)=O)ccc1NCC#Cc1sc2c(N[C@@H]3CCN(C(C)C)C[C@@H]3F)cccc2c1CC(F)(F)F` (racemic) [Example 86, (4-((3-(7-(((Z)-3-fluoro-1-isopropylpiperidin-4-yl)amino)-3-(2,2,2-trifluoroethyl)benzo[b]thiophen-2-yl)prop-2-yn-1-yl)amino)-3-methoxyphenyl)dimethylphosphine oxide], in that order: 37 nM, 0.14 µM, 0.79 µM and 4.56 µM.
For the compound `CN1CC[C@@H](Nc2cccc3c(CC(F)(F)F)c(C#CCNc4cc(F)c(P(C)(C)=O)cc4F)sc23)[C@@H](F)C1` (racemic) [Example 91, (2,5-difluoro-4-((3-(7-(((Z)-3-fluoro-1-methylpiperidin-4-yl)amino)-3-(2,2,2-trifluoroethyl)benzo[b]thiophen-2-yl)prop-2-yn-1-yl)amino)phenyl)dimethylphosphine oxide], the EC50 in assay [1] amounted to 102 nM; in assay [2] (setting [6]), 0.26 µM. Also, the results for the IC50 in the assay with NUGC3 (P53 Y220C) (setting [3]) and in the assay on NUGC4 (P53 WT) (setting [4]) were 1.8 µM and 9.41 µM, respectively.
For `COCCOCCNC(=O)c1ccc(NCC#Cc2sc3c(N[C@@H]4CCN(C)C[C@@H]4F)cccc3c2CC(F)(F)F)c(OC)c1` (racemic) [Example 96, 4-((3-(7-(((Z)-3-fluoro-1-methylpiperidin-4-yl)amino)-3-(2,2,2-trifluoroethyl)benzo[b]thiophen-2-yl)prop-2-yn-1-yl)amino)-3-methoxy-N-(2-(2-methoxyethoxy)ethyl)benzamide] the same measures were 103 nM, 0.13 µM, 1.68 µM and 9.93 µM.
`COc1cc(P(=O)(C2CC2)C2CC2)ccc1NCC#Cc1sc2c(N[C@@H]3CCN(C)C[C@@H]3F)cccc2c1CC(F)(F)F` (racemic) [Example 99, dicyclopropyl(4-((3-(7-(((Z)-3-fluoro-1-methylpiperidin-4-yl)amino)-3-(2,2,2-trifluoroethyl)benzo[b]thiophen-2-yl)prop-2-yn-1-yl)amino)-3-methoxyphenyl)phosphine oxide]: the concentration giving a half-maximal response (EC50) amounted to 87 nM in assay [1] and 0.15 µM in assay [2] (NUGC-3, 6 h, read-out: p53(Y220C)_NUGC-3 EC50 (μM)). Moreover, the results for the IC50 in the assay on NUGC3 (P53 Y220C) (read-out: NUGC3 (P53 Y220C) IC50 (μM)) and in the assay with NUGC4 (P53 WT) (read-out: NUGC4 (P53 WT) IC50 (μM)) were 1.44 µM and 6.58 µM, respectively.
Regarding `COc1cc(P(C)(C)=O)ccc1NCC#Cc1sc2c(N[C@@H]3CCN(CC(C)C)C[C@@H]3F)cccc2c1CC(F)(F)F` (racemic) [Example 101, (4-((3-(7-(((Z)-3-fluoro-1-isobutylpiperidin-4-yl)amino)-3-(2,2,2-trifluoroethyl)benzo[b]thiophen-2-yl)prop-2-yn-1-yl)amino)-3-methoxyphenyl)dimethylphosphine oxide], the EC50 came out at 105 nM in assay [1] and 0.36 µM in assay [2] (setting [6]). Besides, the half-inhibitory concentration (IC50) in the assay with NUGC3 (P53 Y220C) (setting [3]) and with NUGC4 (P53 WT) (setting [4]) was 2.05 µM throughout.
Take `COc1cc(P(C)(C)=O)ccc1NCC#Cc1sc2c(N[C@@H]3CCN(C4CCC4)C[C@@H]3F)cccc2c1CC(F)(F)F` (racemic) [Example 103, (4-((3-(7-(((Z)-1-cyclobutyl-3-fluoropiperidin-4-yl)amino)-3-(2,2,2-trifluoroethyl)benzo[b]thiophen-2-yl)prop-2-yn-1-yl)amino)-3-methoxyphenyl)dimethylphosphine oxide]: the EC50 was determined as 91 nM in assay [1] and 0.21 µM in assay [2] (setting [6]). The IC50 in the assay on NUGC3 (P53 Y220C) (setting [3]) is 1.28 µM; in the assay with NUGC4 (P53 WT) (setting [4]), 2.65 µM.
With `COc1cc(P(C)(C)=O)ccc1NCC#Cc1sc2c(NC3CCN(C)CC3F)cccc2c1CC#N` (racemic) [Example 107, 2-(2-(3-((4-(dimethylphosphoryl)-2-methoxyphenyl)amino)prop-1-yn-1-yl)-7-(((Z)-3-fluoro-1-methylpiperidin-4-yl)amino)benzo[b]thiophen-3-yl)acetonitrile], the EC50 in assay [1] turned out to be 60 nM; in assay [2] (setting [6]), 0.96 µM. For the same compound, the IC50 in the assay with NUGC3 (P53 Y220C) (setting [3]) was 7.25 µM; in the assay with NUGC4 (P53 WT) (setting [4]) it was 20.6 µM.
With `CNC(=O)c1cc(NCC#Cc2sc3c(NC4CCN(C)CC4F)cccc3c2CC(F)(F)F)c(OC)cc1P(C)(C)=O` (racemic) [Example 109, 2-dimethylphosphoryl-5-[3-[7-[((Z)-3-fluoro-1-methyl-4-piperidyl)amino]-3-(2,2,2-trifluoroethyl)benzothiophen-2-yl]prop-2-ynylamino]-4-methoxy-N-methyl-benzamide], the concentration for a half-maximal effect (EC50) came out at 33 nM in assay [1] and 0.12 µM in assay [2] (setting [6]). Moreover, the 50% inhibitory concentration (IC50) in the assay with NUGC3 (P53 Y220C) (setting [3]) stood at 1.19 µM; in the assay on NUGC4 (P53 WT) (setting [4]), 47.7 µM.
On to `CN1CC[C@@H](Nc2cccc3c(CC(F)(F)F)c(C#CCNC(=O)c4cnn(C(C)(C)C)c4)sc23)[C@@H](F)C1` (racemic) [Example 129, 1-(tert-butyl)-N-(3-(7-(((Z)-3-fluoro-1-methylpiperidin-4-yl)amino)-3-(2,2,2-trifluoroethyl)benzo[b]thiophen-2-yl)prop-2-yn-1-yl)-1H-pyrazole-4-carboxamide], for which the EC50 in assay [1] worked out at 69 nM; in assay [2] (setting [6]), 0.18 µM. The half-maximal inhibitory concentration (IC50) in the assay on NUGC3 (P53 Y220C) (setting [3]) stood at 1.85 µM; with NUGC4 (P53 WT) (setting [4]), 8.95 µM.
For `CN1CC[C@@H](Nc2cccc3c(CC(F)(F)F)c(C#CCNC(=O)c4ccn(C(C)(C)C)c4)sc23)[C@@H](F)C1` (racemic) [Example 130, 1-tert-butyl-N-[3-[7-[((Z)-3-fluoro-1-methyl-4-piperidyl)amino]-3-(2,2,2-trifluoroethyl)benzothiophen-2-yl]prop-2-ynyl]pyrrole-3-carboxamide] the same measures were 117 nM, 0.36 µM, 3.55 µM and 6.85 µM.
Take `COc1cc(P(C)(C)=O)ccc1NCC#Cc1sc2c(NC3CCN(C)CC3F)cccc2c1C(O)C(F)(F)F` (racemic) [Example 188, (4-((3-(7-((3-fluoro-1-methylpiperidin-4-yl)amino)-3-(2,2,2-trifluoro-1-hydroxyethyl)benzo[b]thiophen-2-yl)prop-2-yn-1-yl)amino)-3-methoxyphenyl)dimethylphosphine oxide(racemic)]: the EC50 in assay [1] turned out to be 18 nM; in assay [2] (setting [6]), 0.06 µM. For the same compound, the IC50 is 1.9 µM with NUGC3 (P53 Y220C) (setting [3]) and 40.6 µM with NUGC4 (P53 WT) (setting [4]).
For `COCCNC(=O)c1ccc(NCC#Cc2sc3c(N[C@@H]4CCN(C)C[C@@H]4F)cccc3c2CC(F)(F)F)c(OC)c1` (relative stereo) [Example 85, 4-((3-(7-(((Z)-3-fluoro-1-methylpiperidin-4-yl)amino)-3-(2,2,2-trifluoroethyl)benzo[b]thiophen-2-yl)prop-2-yn-1-yl)amino)-3-methoxy-N-(2-methoxyethyl)benzamide] the same measures were 75 nM, 0.22 µM, 1.54 µM and 8.24 µM.
For `COc1cc(C(=O)NC2CCN(C)CC2(F)F)ccc1NCC#Cc1sc2c(N[C@@H]3CCN(C)C[C@@H]3F)cccc2c1CC(F)(F)F` (relative stereo) [Example 94, N-(3,3-difluoro-1-methylpiperidin-4-yl)-4-((3-(7-(((Z)-3-fluoro-1-methylpiperidin-4-yl)amino)-3-(2,2,2-trifluoroethyl)benzo[b]thiophen-2-yl)prop-2-yn-1-yl)amino)-3-methoxybenzamide], in that order: 85 nM, 0.19 µM, 1.84 µM and 2.75 µM.
